The test system of test [1] is Staphylococcus aureus. As to the kind of experiment: Antibacterial activity against methicillin resistant Staphylococcus aureus No. 5. It counts as functional.
Another test concerns Streptococcus pneumoniae. Nature of the test: Antibacterial activity against Streptococcus pneumoniae PCI 602. In kind it is functional.
Test [2] is described as follows: Antibacterial activity against Mycobacterium avium subsp. avium ATCC 25291. In kind it is functional.
For test [3], the system named is Mycolicibacterium smegmatis. As to the kind of experiment: Antibacterial activity against Mycobacterium smegmatis ATCC 607. It counts as functional.
For test [4], the system named is Mycobacterium tuberculosis. Nature of the test: Antibacterial activity against Mycobacterium tuberculosis Kurono. It counts as functional.
A further test concerns Mycolicibacterium phlei. Nature of the test: Antibacterial activity against Mycobacterium phlei. It counts as functional.
The test system of a further test is Bacillus subtilis. Nature of the test: Antibacterial activity against Bacillus subtilis PCI 219. It counts as functional.
The subject of test [5] is Mycobacterium tuberculosis. Nature of the test: Antibacterial activity against Mycobacterium tuberculosis JCM 6384. It counts as functional.
Test [6] relates to Staphylococcus aureus. Nature of the test: Antibacterial activity against methicillin resistant Staphylococcus aureus MS16526. It counts as functional.
In a further test the test system is Mycolicibacterium vaccae. As to the kind of experiment: Antibacterial activity against Mycobacterium vaccae ATCC 15483. It counts as functional.
Test [7] has as its system Staphylococcus aureus. As to the kind of experiment: Antibacterial activity against Staphylococcus aureus FDA 209P. It counts as functional.
Test [8] relates to Mycobacterium tuberculosis. Nature of the test: Antibacterial activity against Mycobacterium tuberculosis H37Rv. It counts as functional.
For test [9], the system named is Mycobacterium avium subsp. paratuberculosis. As to the kind of experiment: Antibacterial activity against Mycobacterium avium subsp. paratuberculosis ATCC 43015. It counts as functional.
A further test relates to Escherichia coli. Nature of the test: Antibacterial activity against Escherichia coli K-12. In kind it is functional.
The test system of test [10] is Enterococcus faecalis. As to the kind of experiment: Antibacterial activity against t Enterococcus faecalis VRE after 20 hrs by NCCLS-based two-fold broth dilution method. In kind it is functional. As to conditions: read-out: MIC.
The subject of test [11] is Enterococcus faecalis. Nature of the test: Antibacterial activity against Enterococcus faecalis ATCC 29212. In kind it is functional.
Test [12] has as its system Enterococcus faecalis. As to the kind of experiment: Antibacterial activity against t Enterococcus faecalis after 20 hrs by NCCLS-based two-fold broth dilution method. The note with it: read-out: MIC. In kind it is functional.
The subject of test [13] is Enterococcus faecalis. As to the kind of experiment: Antibacterial activity against Enterococcus faecalis SR7914 (VRE). It counts as functional.
For test [14], the target named is T1, Phospho-N-acetylmuramoyl-pentapeptide-transferase (Staphylococcus aureus, UniProt P0C1R8).
T1 sequence (P0C1R8 whole entry): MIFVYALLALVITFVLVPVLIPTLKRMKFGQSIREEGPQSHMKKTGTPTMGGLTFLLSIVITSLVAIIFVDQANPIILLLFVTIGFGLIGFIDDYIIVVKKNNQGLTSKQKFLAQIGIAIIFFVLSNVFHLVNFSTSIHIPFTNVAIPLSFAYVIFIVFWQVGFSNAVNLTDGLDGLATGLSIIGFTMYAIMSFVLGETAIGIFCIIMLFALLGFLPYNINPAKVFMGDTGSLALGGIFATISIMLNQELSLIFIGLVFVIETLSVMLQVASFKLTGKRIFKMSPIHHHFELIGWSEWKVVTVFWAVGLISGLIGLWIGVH
Nature of the test: Inhibition of MraY in Staphylococcus aureus.

The test system of test [15] is Staphylococcus aureus. As to the kind of experiment: Antibacterial activity against methicillin susceptible Staphylococcus aureus ATCC 29213. In kind it is functional.
The test system of test [16] is Enterococcus faecium. As to the kind of experiment: Antibacterial activity against Enterococcus faecium ATCC 19434. In kind it is functional.
Test [17] has as its system Staphylococcus aureus. As to the kind of experiment: Antibacterial activity against methicillin resistant Staphylococcus aureus SR3637. It counts as functional.
Test [18] deals with Enterococcus faecium. Nature of the test: Antibacterial activity against Enterococcus faecium SR7917 (VRE). In kind it is functional.

Molecules are shown by their SMILES. In brackets after ≈: the same amount, converted by molar mass.

For `CCCCCCCCCCCNC(=O)C1=CCN(C)[C@@H]([C@H](O[C@@H]2O[C@H](CN)[C@@H](O)[C@H]2O)[C@H]2O[C@@H](n3ccc(=O)[nH]c3=O)[C@H](O)[C@@H]2O)C(=O)N1C`, the MIC (commonly the smallest concentration in the dilution series that meets the test's criterion for growth inhibition) against Staphylococcus aureus [1] is 25 µg/mL (≈ 35.2 µM); in the test with Streptococcus pneumoniae it was 50 µg/mL (≈ 70.3 µM); in [2], 3.13 µg/mL (≈ 4.4 µM); in [3], less than 0.2 µg/mL; in [4] it was 1.56 µg/mL (≈ 2.19 µM); against Mycolicibacterium phlei, 0.39 µg/mL (≈ 0.549 µM). Moreover, the minimal inhibitory concentration (MIC) with Bacillus subtilis is 0.39 µg/mL (≈ 0.549 µM); in test [5], 0.2 µg/mL (≈ 0.281 µM); with Staphylococcus aureus [6], 12.5 µg/mL (≈ 17.6 µM); in the test on Mycolicibacterium vaccae, 1.56 µg/mL (≈ 2.19 µM); in the test with Staphylococcus aureus [7] it was 6.25 µg/mL (≈ 8.79 µM); in test [8], 1.56 µg/mL (≈ 2.19 µM). The values for the MIC (in test [9]; in the test on Escherichia coli) were 0.2 µg/mL (≈ 0.281 µM) and more than 100 µg/mL, respectively.

On to `CCCCCCCCCCCCCCCCCCNC(=O)C1=CCN(C)[C@@H]([C@H](O[C@@H]2O[C@H](CN)[C@@H](O)[C@H]2O)[C@H]2O[C@@H](n3ccc(=O)[nH]c3=O)[C@H](O)[C@@H]2O)C(=O)N1C`, for which the MIC is 6.25 µg/mL (≈ 7.73 µM) in the test on Staphylococcus aureus [1]; more than 100 µg/mL in the test on Streptococcus pneumoniae; 0.78 µg/mL (≈ 0.964 µM) in [2]; 6.25 µg/mL (≈ 7.73 µM) in [3]; 1.56 µg/mL (≈ 1.93 µM) in test [4]; 3.13 µg/mL (≈ 3.87 µM) in the test with Mycolicibacterium phlei. The MIC against Bacillus subtilis was less than 0.2 µg/mL; in [5], 0.78 µg/mL (≈ 0.964 µM); with Staphylococcus aureus [6] it was 6.25 µg/mL (≈ 7.73 µM); with Mycolicibacterium vaccae, 3.13 µg/mL (≈ 3.87 µM); against Staphylococcus aureus [7], 6.25 µg/mL (≈ 7.73 µM); in test [8], 1.56 µg/mL (≈ 1.93 µM). For the same compound, the MIC in [9] was 0.39 µg/mL (≈ 0.482 µM); against Escherichia coli, more than 100 µg/mL.

With `CCCCCNC(=O)C1=CCN(C)[C@@H]([C@H](O[C@@H]2O[C@H](CN)[C@@H](O)[C@H]2O)[C@H]2O[C@@H](n3ccc(=O)[nH]c3=O)[C@H](O)[C@@H]2O)C(=O)N1C`, the MIC in the test on Staphylococcus aureus [1] is more than 100 µg/mL; in the test with Streptococcus pneumoniae, more than 100 µg/mL; in test [2], 100 µg/mL (≈ 160 µM); in test [3], 100 µg/mL (≈ 160 µM); in [4] it was 6.25 µg/mL (≈ 9.97 µM); with Mycolicibacterium phlei, more than 100 µg/mL. Moreover, the MIC is more than 100 µg/mL with Bacillus subtilis; 100 µg/mL (≈ 160 µM) in test [5]; more than 100 µg/mL with Staphylococcus aureus [6]; more than 100 µg/mL against Mycolicibacterium vaccae; 25 µg/mL (≈ 39.9 µM) against Staphylococcus aureus [7]; 12.5 µg/mL (≈ 19.9 µM) in test [8]. The results for the MIC (in [9]; with Escherichia coli) were 100 µg/mL (≈ 160 µM) and more than 100 µg/mL, respectively.

Take `CCCCCCCCNC(=O)C1=CCN(C)[C@@H]([C@H](O[C@@H]2O[C@H](CN)[C@@H](O)[C@H]2O)[C@H]2O[C@@H](n3ccc(=O)[nH]c3=O)[C@H](O)[C@@H]2O)C(=O)N1C`: the MIC is 3.13 µg/mL (≈ 4.68 µM) against Staphylococcus aureus [1]; more than 100 µg/mL in the test with Streptococcus pneumoniae; 3.13 µg/mL (≈ 4.68 µM) in test [2]; 6.25 µg/mL (≈ 9.35 µM) in test [3]; 0.78 µg/mL (≈ 1.17 µM) in [4]; 100 µg/mL (≈ 150 µM) in the test with Mycolicibacterium phlei. The MIC against Bacillus subtilis was more than 100 µg/mL; in [5] it was 12.5 µg/mL (≈ 18.7 µM); in the test on Staphylococcus aureus [6] it was more than 100 µg/mL; in the test on Mycolicibacterium vaccae, 100 µg/mL (≈ 150 µM); with Staphylococcus aureus [7], 100 µg/mL (≈ 150 µM); in [8] it was 3.3 µg/mL (≈ 4.93 µM). Besides, the MIC in test [9] is 25 µg/mL (≈ 37.4 µM); against Escherichia coli, more than 100 µg/mL.

Regarding `CCCCCCCCCCCC(=O)N[C@@H]1CCN[C@@H]([C@H](O[C@@H]2O[C@H](CN)[C@@H](O)[C@H]2O)[C@H]2O[C@@H](n3ccc(=O)[nH]c3=O)[C@H](O)[C@@H]2O)C1`, the MIC in the test on Enterococcus faecalis [10], against Enterococcus faecalis [11], in the test with Enterococcus faecalis [12] and with Enterococcus faecalis [13] was 4 µg/mL (≈ 6.1 µM) in each case.

As for `CCCCCCCCCCCCCCCCC[C@H]1CN[C@@H]([C@H](O[C@@H]2O[C@H](CN)[C@@H](O)[C@H]2O)[C@H]2O[C@@H](n3ccc(=O)[nH]c3=O)[C@H](O)[C@@H]2O)C(=O)N(C)[C@@H]1C(=O)O`, in test [14], the half-maximal inhibitory concentration (IC50) (usually the concentration that inhibits the measured activity by half) is 3.8 µM. Besides, the MIC was determined as 8 µg/mL (≈ 10.2 µM) in the test on Staphylococcus aureus [15]; 8 µg/mL (≈ 10.2 µM) in the test on Enterococcus faecium [16]; 8 µg/mL (≈ 10.2 µM) with Staphylococcus aureus [17]; 8 µg/mL (≈ 10.2 µM) in the test on Enterococcus faecalis [11]; 16 µg/mL (≈ 20.4 µM) in the test on Enterococcus faecium [18]; 16 µg/mL (≈ 20.4 µM) against Enterococcus faecalis [13].

As for `CCCCCCCCCNC(=O)C1=CCN(C)[C@@H]([C@H](O[C@@H]2O[C@H](CN)[C@@H](O)[C@H]2O)[C@H]2O[C@@H](n3ccc(=O)[nH]c3=O)[C@H](O)[C@@H]2O)C(=O)N1C`, the MIC with Staphylococcus aureus [1] is 50 µg/mL (≈ 73.2 µM); against Streptococcus pneumoniae it was more than 100 µg/mL; in [2], 1.56 µg/mL (≈ 2.28 µM); in test [3], 0.78 µg/mL (≈ 1.14 µM); in test [4], 0.78 µg/mL (≈ 1.14 µM); with Mycolicibacterium phlei, 3.13 µg/mL (≈ 4.58 µM). For the same compound, the MIC came out at 1.56 µg/mL (≈ 2.28 µM) against Bacillus subtilis; 0.2 µg/mL (≈ 0.293 µM) in test [5]; 50 µg/mL (≈ 73.2 µM) with Staphylococcus aureus [6]; 12.5 µg/mL (≈ 18.3 µM) against Mycolicibacterium vaccae; 6.25 µg/mL (≈ 9.15 µM) against Staphylococcus aureus [7]; 1.56 µg/mL (≈ 2.28 µM) in test [8]. Besides, the MIC is 0.2 µg/mL (≈ 0.293 µM) in test [9] and more than 100 µg/mL in the test with Escherichia coli.

The record behind these values is ChEMBL document CHEMBL4402510, “Caprazamycins: Promising lead structures acting on a novel antibacterial target MraY” (Eur J Med Chem, 2019).
